How the values were obtained:
CDK2 [1] = target: T1, CDK2 (Homo sapiens, UniProt P24941); experiment: HiBiT assay (CDK2 degradation); format: cell-based; conditions: HEK293 clonal line with CRISPR KI HiBiT tag on CDK2, 24 hours, HiBiT Lysis Reagent
T1 construct: HEK293 clonal lines with CRISPR KI HiBiT tag on CDK2 proteins; host or cells: HEK293 clonal line, CRISPR knock-in HiBiT-CDK2, stably expressing LgBiT
Protocol: HEK293 clonal lines with CRISPR KI HiBiT tag on CDK2 proteins and stably expressing LgBiT protein were obtained from Promega (Madison, WI). Cells were plated at 5000 cells per well using Multiflo (BioTek) in 384-well white solid bottom plates (Corning, 3570BC) in 25 ul volume in DMEM media (DMEM, high glucose, HEPES, no phenol red (ThermoFisher Scientific, 21063029)) containing 10% FBS (Corning, 35-075-CV), 1% Penicillin/Streptomycin (ThermoFisher Scientific, 15140-122). Cells were incubated for 16 hours at 37° C., 5% CO2. 75 nL of a compound at 30 μM were dosed into the plate using an Echo® 650 liquid handler (Labcyte). Cells were incubated at 37° C., 5% CO2 for 24 hours. 5 ul of HiBiT Lysis Reagent (Promega, N3030) is added using Combi Multidrop (ThermoFisher Scientific), plates are incubated for 15′ at 37° C., 5% CO2 and then signal was read on a Pherastar FSX using “LUM plus” optic module.
Analysis was performed in Scinamic (Scinamic, Cambridge, MA). Luminescence response (R) was calculated by the formula: response=100*(S−N)/(P−N) where S is the signal of the well, N and P the mean negative and positive control values respectively of the same plate. The luminescence response was then fitted in Scinamic using a 3-parameter agonist logistic fit (hillslope=1, EC50>0, top/bottom unconstrained).

CRBN-DDB1 = CRBN-DDB1 (Homo sapiens, UniProt Q96SW2); experiment: Compound binding to CRBN by HTRF assay; conditions: CRBN-DDB1 2.5 nM, Cy5-Thalidomide 100 nM, 30 min; Ki from geometric mean IC50 by Cheng-Prustoff transformation
Chain of CRBN-DDB1 (Q96SW2 whole entry): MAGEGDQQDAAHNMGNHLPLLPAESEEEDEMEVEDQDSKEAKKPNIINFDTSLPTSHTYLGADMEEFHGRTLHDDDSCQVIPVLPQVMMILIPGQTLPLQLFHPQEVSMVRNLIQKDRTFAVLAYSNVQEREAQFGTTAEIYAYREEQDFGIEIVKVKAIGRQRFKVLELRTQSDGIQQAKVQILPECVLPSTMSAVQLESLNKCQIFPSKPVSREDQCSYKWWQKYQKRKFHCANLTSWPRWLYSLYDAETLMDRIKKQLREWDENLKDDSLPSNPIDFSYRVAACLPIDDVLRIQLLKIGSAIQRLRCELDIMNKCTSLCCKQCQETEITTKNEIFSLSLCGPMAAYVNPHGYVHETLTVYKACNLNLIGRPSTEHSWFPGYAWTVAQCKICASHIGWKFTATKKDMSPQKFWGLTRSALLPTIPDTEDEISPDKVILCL
Chain of CRBN-DDB1 (Q16531 whole entry partner): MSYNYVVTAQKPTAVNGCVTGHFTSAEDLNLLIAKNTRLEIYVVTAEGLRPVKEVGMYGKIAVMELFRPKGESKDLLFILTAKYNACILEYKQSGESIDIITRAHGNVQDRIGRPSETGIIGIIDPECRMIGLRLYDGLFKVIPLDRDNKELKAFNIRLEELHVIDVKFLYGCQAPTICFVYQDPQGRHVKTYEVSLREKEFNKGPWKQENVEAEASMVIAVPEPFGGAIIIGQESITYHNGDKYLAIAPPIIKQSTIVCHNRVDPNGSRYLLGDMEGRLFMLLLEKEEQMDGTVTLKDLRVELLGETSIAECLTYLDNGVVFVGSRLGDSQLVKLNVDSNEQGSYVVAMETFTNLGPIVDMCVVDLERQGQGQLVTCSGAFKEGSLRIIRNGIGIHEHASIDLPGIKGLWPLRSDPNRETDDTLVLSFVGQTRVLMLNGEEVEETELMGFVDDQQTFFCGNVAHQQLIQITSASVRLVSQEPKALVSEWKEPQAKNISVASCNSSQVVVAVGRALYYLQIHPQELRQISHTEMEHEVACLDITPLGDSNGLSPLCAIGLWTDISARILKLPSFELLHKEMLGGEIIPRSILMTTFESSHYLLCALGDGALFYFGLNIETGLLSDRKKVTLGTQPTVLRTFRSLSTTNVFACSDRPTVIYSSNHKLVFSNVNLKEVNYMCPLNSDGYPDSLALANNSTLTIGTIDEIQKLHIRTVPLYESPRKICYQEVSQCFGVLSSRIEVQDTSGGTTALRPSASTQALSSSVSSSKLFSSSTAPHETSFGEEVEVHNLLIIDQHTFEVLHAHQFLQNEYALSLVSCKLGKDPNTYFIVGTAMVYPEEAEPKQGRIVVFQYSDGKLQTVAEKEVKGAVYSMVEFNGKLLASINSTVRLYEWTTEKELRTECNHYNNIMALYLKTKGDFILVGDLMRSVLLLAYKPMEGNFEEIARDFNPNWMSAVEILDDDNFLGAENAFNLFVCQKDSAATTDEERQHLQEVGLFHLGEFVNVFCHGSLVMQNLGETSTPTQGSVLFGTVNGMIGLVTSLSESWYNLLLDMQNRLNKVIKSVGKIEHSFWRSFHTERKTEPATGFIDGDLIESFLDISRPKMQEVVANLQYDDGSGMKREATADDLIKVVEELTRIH
Method in brief: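 HTRF displacement of Cy5-thalidomide probe (100 nM) from His-CRBN-DDB1 (2.5 nM) with anti-His terbium cryptate, in HEPES/NaCl/TCEP/EDTA/Tween20 buffer. 10-point 1:3 compound series, 30 min at ambient temperature; signal normalised to DMSO and lenalidomide controls, IC50 fitted and Ki derived by Cheng-Prusoff.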

CDK2 [2] = target: T1, CDK2; experiment: NanoBiT assay (CDK2 degradation); format: cell-based; conditions: 24 hours; for Dmax: HEK293, HEK293 clonal line with CRISPR KI HiBiT tag on CDK2, Endurazine live cell substrate; for CDK2 NanoBiT Dmax (%): HEK293 clonal line with CRISPR KI HiBiT tag on CDK2, Endurazine live cell substrate
Method in brief: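 HEK293 cells with endogenous HiBiT-tagged CDK2 knock-in and stable LgBiT, with Endurazine live-cell substrate; cells were dosed with compound (30 μM stock) for 24 h at 37 °C, then luminescence was read. Response normalised to plate negative/positive controls and fitted to a 3-parameter logistic (hillslope=1) for EC50.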

SMILES | Dmax (CDK2 [1]) [%] | Ki (CRBN-DDB1) [nM] | Dmax (CDK2 [2]) [%] | CDK2 NanoBiT Dmax (%) (CDK2 [2])
O=C1CCC(N2Cc3ccc(CNC(=O)O[C@@H]4CCC[C@H]4c4ccccc4)cc3C2=O)C(=O)N1 (mixture of isomers) [Compound 26, rac-(1R,2S)-2-phenylcyclopentyl N-{[2-(2,6-dioxopiperidin-3-yl)-3-oxo-2,3-dihydro-1H-isoindol-5-yl]methyl}carbamate] | 10 to 50 | ≤ 100 | – | –
O=C1CCC(N2Cc3ccc(CNC(=O)O[C@@H]4C[C@H]5CC[C@@H]4O5)cc3C2=O)C(=O)N1 (mixture of isomers) [Compound 27, rac-(1R,2S,4S)-7-oxabicyclo[2.2.1]heptan-2-yl N-{[2-(2,6-dioxopiperidin-3-yl)-3-oxo-2,3-dihydro-1H-isoindol-5-yl]methyl}carbamate] | ≤ 10 | 100 to 1000 | – | –
O=C1CCC(N2Cc3ccc(CNC(=O)O[C@@H]4CO[C@@H]4c4ccccc4)cc3C2=O)C(=O)N1 (mixture of isomers) [Compound 37, rac-(2R,3R)-2-phenyloxetan-3-yl N-{[2-(2,6-dioxopiperidin-3-yl)-3-oxo-2,3-dihydro-1H-isoindol-5-yl]methyl}carbamate] | ≤ 10 | 100 to 1000 | – | –
O=C1CCC(N2Cc3ccc(CNC(=O)OC[C@@H]4C[C@@H]5C=C[C@H]4CC5)cc3C2=O)C(=O)N1 (mixture of isomers) [Compound 70, rac-[(1R,2R,4R)-bicyclo[2.2.2]oct-5-en-2-yl]methyl N-{[2-(2,6-dioxopiperidin-3-yl)-3-oxo-2,3-dihydro-1H-isoindol-5-yl]methyl}carbamate] | 50 to 80 | ≤ 100 | – | –
CC1(C)CCC(OC(=O)NCc2ccc3c(c2)C(=O)N(C2CCC(=O)NC2=O)C3)CC1 (stereo not shown) [Compound 1, 4,4-dimethylcyclohexyl ((2-(2,6-dioxopiperidin-3-yl)-3-oxoisoindolin-5-yl)methyl)carbamate] | 10 to 50 | 100 to 1000 | – | –
O=C1CCC(N2Cc3ccc(CNC(=O)OCC4CC5(CCC5)C4)cc3C2=O)C(=O)N1 (stereo not shown) [Compound 2, spiro[3.3]heptan-2-ylmethyl ((2-(2,6-dioxopiperidin-3-yl)-3-oxoisoindolin-5-yl)methyl)carbamate] | 50 to 80 | 100 to 1000 | – | –
O=C1CCC(N2Cc3ccc(CNC(=O)OC4CC5(CCC5)C4)cc3C2=O)C(=O)N1 (stereo not shown) [Compound 3, spiro[3.3]heptan-2-yl ((2-(2,6-dioxopiperidin-3-yl)-3-oxoisoindolin-5-yl)methyl)carbamate] | 10 to 50 | 100 to 1000 | – | –
O=C1CCC(N2Cc3ccc(CNC(=O)OC4CC5(CCCCC5)C4)cc3C2=O)C(=O)N1 (stereo not shown) [Compound 4, spiro[3.5]nonan-2-yl ((2-(2,6-dioxopiperidin-3-yl)-3-oxoisoindolin-5-yl)methyl)carbamate] | 50 to 80 | 100 to 1000 | – | –
O=C1CCC(N2Cc3ccc(CNC(=O)OCC45CC(c6ccccc6)(C4)C5)cc3C2=O)C(=O)N1 (stereo not shown) [Compound 6, (3-phenylbicyclo[1.1.1]pentan-1-yl)methyl ((2-(2,6-dioxopiperidin-3-yl)-3-oxoisoindolin-5-yl)methyl)carbamate] | 10 to 50 | – | – | –
O=C1CCC(N2Cc3ccc(CNC(=O)OC4CCOC4)cc3C2=O)C(=O)N1 (stereo not shown) [Compound 13, oxolan-3-yl N-{[2-(2,6-dioxopiperidin-3-yl)-3-oxo-2,3-dihydro-1H-isoindol-5-yl]methyl}carbamate] | ≤ 10 | 100 to 1000 | – | –
O=C1CCC(N2Cc3ccc(CNC(=O)OC4CC4)cc3C2=O)C(=O)N1 (stereo not shown) [Compound 14, cyclopropyl N-{[2-(2,6-dioxopiperidin-3-yl)-3-oxo-2,3-dihydro-1H-isoindol-5-yl]methyl}carbamate] | 10 to 50 | 100 to 1000 | – | –
O=C1CCC(N2Cc3ccc(CNc4nnc(C5CC6(CCC6)C5)o4)c(O)c3C2=O)C(=O)N1 (stereo not shown) [Compound 135, 3-(7-hydroxy-1-oxo-6-(((5-(spiro[3.3]heptan-2-yl)-1,3,4-oxadiazol-2-yl)amino)methyl)isoindolin-2-yl)piperidine-2,6-dione] | – | 100 to 1000 | 50 to 80 | –
O=C1CCC(N2Cc3ccc(CNc4nnc(C5CC6(CCC6)C5)o4)cc3C2=O)C(=O)N1 (stereo not shown) [Compound 136, 3-(1-oxo-6-(((5-(spiro[3.3]heptan-2-yl)-1,3,4-oxadiazol-2-yl)amino)methyl)isoindolin-2-yl)piperidine-2,6-dione] | – | 100 to 1000 | 50 to 80 | –
O=C1CCC(N2Cc3c(Br)cc(CNc4nnc(C5CC6(CCC6)C5)o4)c(O)c3C2=O)C(=O)N1 (stereo not shown) [Compound 137, 3-(4-bromo-7-hydroxy-1-oxo-6-(((5-(spiro[3.3]heptan-2-yl)-1,3,4-oxadiazol-2-yl)amino)methyl)isoindolin-2-yl)piperidine-2,6-dione] | – | ≤ 100 | 50 to 80 | –
O=C1CCC(N2Cc3c(Br)cc(CNc4nnc(C5CC6(CCC6)C5)o4)cc3C2=O)C(=O)N1 (stereo not shown) [Compound 138, 3-(4-bromo-1-oxo-6-(((5-(spiro[3.3]heptan-2-yl)-1,3,4-oxadiazol-2-yl)amino)methyl)isoindolin-2-yl)piperidine-2,6-dione] | – | ≤ 100 | 50 to 80 | –
O=C1CCC(N2Cc3c(cc(CNc4nnc(C5CC6(CCC6)C5)o4)cc3C(F)(F)F)C2=O)C(=O)N1 (stereo not shown) [Compound 139, 3-(1-oxo-6-(((5-(spiro[3.3]heptan-2-yl)-1,3,4-oxadiazol-2-yl)amino)methyl)-4-(trifluoromethyl)isoindolin-2-yl)piperidine-2,6-dione] | – | 100 to 1000 | – | C (C represents a Dmax value of >50% and ≤80%)
O=C1CCC(N2Cc3c(Cl)cc(CNc4nnc(C5CC6(CCC6)C5)o4)cc3C2=O)C(=O)N1 (stereo not shown) [Compound 140, 3-(4-chloro-1-oxo-6-(((5-(spiro[3.3]heptan-2-yl)-1,3,4-oxadiazol-2-yl)amino)methyl)isoindolin-2-yl)piperidine-2,6-dione] | – | 100 to 1000 | 50 to 80 | –
O=C1CCC(N2Cc3ccc(CNc4nnc(C5CCCCC5)o4)cc3C2=O)C(=O)N1 (stereo not shown) [Compound 141, 3-(6-(((5-cyclohexyl-1,3,4-oxadiazol-2-yl)amino)methyl)-1-oxoisoindolin-2-yl)piperidine-2,6-dione] | – | 100 to 1000 | 10 to 50 | –
O=C1CCC(N2Cc3c(F)cc(CNc4nnc(C5CC6(CCC6)C5)o4)cc3C2=O)C(=O)N1 (stereo not shown) [Compound 142, 3-(4-fluoro-1-oxo-6-(((5-(spiro[3.3]heptan-2-yl)-1,3,4-oxadiazol-2-yl)amino)methyl)isoindolin-2-yl)piperidine-2,6-dione] | – | 100 to 1000 | 50 to 80 | –
O=C1CCC(N2Cc3c(cc(CNc4nnc(C5CC6(CCC6)C5)o4)cc3C(F)F)C2=O)C(=O)N1 (stereo not shown) [Compound 143, 3-(4-(difluoromethyl)-1-oxo-6-(((5-(spiro[3.3]heptan-2-yl)-1,3,4-oxadiazol-2-yl)amino)methyl)isoindolin-2-yl)piperidine-2,6-dione] | – | ≤ 100 | 10 to 50 | –
Nc1c(CNc2nnc(C3CC4(CCC4)C3)o2)ccc2c1C(=O)N(C1CCC(=O)NC1=O)C2 (stereo not shown) [Compound 144, 3-(7-amino-1-oxo-6-(((5-(spiro[3.3]heptan-2-yl)-1,3,4-oxadiazol-2-yl)amino)methyl)isoindolin-2-yl)piperidine-2,6-dione] | – | 100 to 1000 | 10 to 50 | –
O=C1CCC(N2Cc3c(cc(CNc4nnc(C5CC6(CCC6)C5)o4)cc3C(F)(F)F)C2=O)C(=O)N1 (stereo not shown) [Compound 145, 3-(1-oxo-6-(((5-(spiro[3.3]heptan-2-yl)-1,3,4-oxadiazol-2-yl)amino)methyl)-4-(trifluoromethyl)isoindolin-2-yl)piperidine-2,6-dione] | – | 100 to 1000 | – | B (B represents a Dmax value of >10% and ≤50%)

From US20240317706A1, “COMPOUNDS THAT MEDIATE PROTEIN DEGRADATION AND METHODS OF USE THEREOF” (Monte Rosa Therapeutics, Inc., priority 2021, published 2024)
